These results are taken from patent US11034718B2, “C-3 novel triterpenone with C-17 reverse amide derivatives as HIV inhibitors” (HETERO LABS LIMITED, priority 2015, dated 2021).

Each structure is given as a SMILES string. Read-outs that look alike come from different tables or passages of the source.

Holding throughout (format): cell-based
One assay concerns HIV-1 strain 92HT599. Nature of the assay: Antiviral activity against HIV-1 strain 92HT599 in MT2 cells (p24 estimation). Particulars: HIV-1 92HT599, ~96 hours. A digest of the protocol: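 Percent inhibition versus vehicle controls came from p24 quantified in supernatant aliquots. These were taken after ~96 h incubation of compound (DMSO ≤1%) with MT2 cells infected at 10 TCID50/30,000 cells.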

In another assay the test system is HIV-1 pNL4-3 WT. Description: Antiviral activity against pNL4-3/WT strain in MT4 cells (p24 estimation). Particulars: Human immunodeficiency virus 1, MT4, 96 h, read-out: pNL4-3 WT IC50. On the procedure: (§1) Example 78: Evaluation of Compounds Antiviral Activity Against pNL4-3/WT & V7A Strains in MT4 Cells
(§2) MT4 cells were Transfected with HIV-1 Plasmid (pNL4-3-WT & V7A) (Cells were incubating with required number of TCID50 of HIV-1 for 1.5 h at 37° C.). After infection, the infected cells were plated at the concentration of 3×10^4 cells per well in 96 well plate. Test compound was added to the test plate in defined format with the final concentration of DMSO is not more than 1%. Incubation was carried out in CO2 incubator for 4 days for viral infection. At the end of incubation period an aliquot from each well was taken for p24 estimation. p24 estimation was carried out using Advance biosciences kit as per the procedure detailed by supplier.

The test system of the next assay is HIV-1 pNL4-3 V7A. Nature of the assay: Antiviral activity against pNL4-3/V7A strain in MT4 cells (p24 estimation). Conditions: Human immunodeficiency virus 1, MT4, 96 h, read-out: pNL4-3 V7A IC50. On the procedure: as §1, §2
[1] abbreviates: Human immunodeficiency virus 1, 0% serum binding assay, read-out: IC50 0% serum.
Setting [2] is: Human immunodeficiency virus 1, 40% serum binding assay, read-out: IC50 40% serum.

`Cc1cn(-c2ccc(C(=O)NC(C)(C)C(=O)N[C@@]34CC[C@]5(C)[C@H](CC[C@@H]6[C@@]7(C)CC[C@H](OC(=O)[C@H]8C[C@@H](C(=O)O)C8(C)C)C(C)(C)[C@@H]7CC[C@]65C)C3=C(C(C)C)C(=O)C4)cc2)cn1` [Example 20, (1R,3S)-3-((((3aR,5aR,5bR,7aR,9S,11aR,11bR,13aS)-1-isopropyl-5a,5b,8,8,11a-pentamethyl-3a-(2-methyl-2-(4-(4-methyl-1H-imidazol-1-yl)benzamido)propanamido)-2-oxo-3,3a,4,5,5a,5b,6,7,7a,8,9,10,11,11a,11b,12,13,13a-octadeca hydro-2H-cyclopenta[a]chrysen-9-yl)oxy)carbonyl)-2,2-dimethylcyclobutane-1-carboxylic acid]: the half-maximal inhibitory concentration (IC50) with HIV-1 strain 92HT599 (setting [1]) is less than 3 nM; in the assay on HIV-1 strain 92HT599 (setting [2]), less than 50 nM; with HIV-1 pNL4-3 WT it was more than 10 nM; in the assay on HIV-1 pNL4-3 V7A it was more than 50 nM.

With `Cc1cccc(NC(=O)NC(C)(C)C(=O)N[C@@]23CC[C@]4(C)[C@H](CC[C@@H]5[C@@]6(C)CC[C@H](OC(=O)[C@H]7C[C@@H](C(=O)O)C7(C)C)C(C)(C)[C@@H]6CC[C@]54C)C2=C(C(C)C)C(=O)C3)n1` [Example 72, (1R,3S)-3-((((3aR,5aR,5bR,7aR,9S,11aR,11bR,13aS)-1-isopropyl-5a,5b,8,8,11a-pentamethyl-3a-(2-methyl-2-(3-(6-methylpyridin-2-yl)ureido)propanamido)-2-oxo-3,3a,4,5,5a,5b,6,7,7a,8,9,10,11,11a,11b,12,13,13a-octadecahydro-2H-cyclopenta[a]chrysen-9-yl)oxy)carbonyl)-2,2-dimethylcyclobutane-1-carboxylic acid], the 50% inhibitory concentration (IC50) was less than 3 nM in the assay on HIV-1 strain 92HT599 (setting [1]), less than 50 nM in the assay on HIV-1 strain 92HT599 (setting [2]), less than 5 nM in the assay on HIV-1 pNL4-3 WT and more than 50 nM with HIV-1 pNL4-3 V7A.

With `CC(C)C1=C2[C@H]3CC[C@@H]4[C@@]5(C)CC[C@H](OC(=O)[C@H]6C[C@@H](C(=O)O)C6(C)C)C(C)(C)[C@@H]5CC[C@@]4(C)[C@]3(C)CC[C@@]2(NC(=O)C(C)(C)NC(=O)c2ncccn2)CC1=O` [Example 32, (1R,3S)-3-((((3aR,5aR,5bR,7aR,9S,11aR,11bR,13aS)-1-isopropyl-5a,5b,8,8,11a-pentamethyl-3a-(2-methyl-2-(pyrimidine-2-carboxamido)propanamido)-2-oxo-3,3a,4,5,5a,5b,6,7,7a,8,9,10,11,11a,11b,12,13,13a-octadecahydro-2H-cyclopenta[a]chrysen-9-yl)oxy)carbonyl)-2,2-dimethylcyclobutane-1-carboxylic acid], the IC50 with HIV-1 strain 92HT599 (setting [1]) was 3.01 to 10 nM; in the assay with HIV-1 strain 92HT599 (setting [2]) it was more than 200 nM; in the assay on HIV-1 pNL4-3 WT, more than 10 nM; in the assay on HIV-1 pNL4-3 V7A, more than 50 nM.

For `Cc1nc(C)c(C(=O)NC(C)(C)C(=O)N[C@@]23CC[C@]4(C)[C@H](CC[C@@H]5[C@@]6(C)CC[C@H](OC(=O)[C@H]7C[C@@H](C(=O)O)C7(C)C)C(C)(C)[C@@H]6CC[C@]54C)C2=C(C(C)C)C(=O)C3)s1` [Example 14, (1R,3S)-3-((((3aR,5aR,5bR,7aR,9S,11aR,11bR,13aS)-3a-(2-(2,4-dimethylthiazole-5-carboxamido)-2-methylpropanamido)-1-isopropyl-5a,5b,8,8,11a-pentamethyl-2-oxo-3,3a,4,5,5a,5b,6,7,7a,8,9,10,11,11a,11b,12,13,13a-octadecahydro-2H-cyclopenta[a]chrysen-9-yl)oxy)carbonyl)-2,2-dimethylcyclobutane-1-carboxylic acid], the IC50 in the assay with HIV-1 strain 92HT599 (setting [1]) was less than 3 nM; in the assay on HIV-1 strain 92HT599 (setting [2]) it was less than 50 nM; in the assay on HIV-1 pNL4-3 WT, less than 5 nM; in the assay with HIV-1 pNL4-3 V7A, 10 to 50 nM.

As to `CC(C)C1=C2[C@H]3CC[C@@H]4[C@@]5(C)CC[C@H](OC(=O)[C@H]6C[C@@H](C(=O)O)C6(C)C)C(C)(C)[C@@H]5CC[C@@]4(C)[C@]3(C)CC[C@@]2(NC(=O)C(C)(C)NC(=O)c2ccc(Cl)cn2)CC1=O` [Example 70, (1R,3S)-3-((((3aR,5aR,5bR,7aR,9S,11aR,11bR,13aS)-3a-(2-(5-chloropicolinamido)-2-methylpropanamido)-1-isopropyl-5a,5b,8,8,11a-pentamethyl-2-oxo-3,3a,4,5,5a,5b,6,7,7a,8,9,10,11,11a,11b,12,13,13a-octadecahydro-2H-cyclopenta[a]chrysen-9-yl)oxy)carbonyl)-2,2-dimethylcyclobutane-1-carboxylic acid], the IC50 with HIV-1 strain 92HT599 (setting [1]) is less than 3 nM; with HIV-1 strain 92HT599 (setting [2]) it was less than 50 nM; with HIV-1 pNL4-3 WT, less than 5 nM; with HIV-1 pNL4-3 V7A it was less than 10 nM.

As to `CCOC(=O)NC(C)(C)C(=O)N[C@@]12CC[C@]3(C)[C@H](CC[C@@H]4[C@@]5(C)CC[C@H](OC(=O)[C@H]6C[C@@H](C(=O)O)C6(C)C)C(C)(C)[C@@H]5CC[C@]43C)C1=C(C(C)C)C(=O)C2` [Example 64], the IC50 is less than 3 nM in the assay on HIV-1 strain 92HT599 (setting [1]), less than 50 nM in the assay on HIV-1 strain 92HT599 (setting [2]), 5.01 to 10 nM with HIV-1 pNL4-3 WT and more than 50 nM in the assay with HIV-1 pNL4-3 V7A.

As for `Cc1occc1C(=O)NC(C)(C)C(=O)N[C@@]12CC[C@]3(C)[C@H](CC[C@@H]4[C@@]5(C)CC[C@H](OC(=O)[C@H]6C[C@@H](C(=O)O)C6(C)C)C(C)(C)[C@@H]5CC[C@]43C)C1=C(C(C)C)C(=O)C2` [Example 30, (1R,3S)-3-((((3aR,5aR,5bR,7aR,9S,11aR,11bR,13aS)-1-isopropyl-5a,5b,8,8,11a-pentamethyl-3a-(2-methyl-2-(2-methylfuran-3-carboxamido)propan amido)-2-oxo-3,3a,4,5,5a,5b,6,7,7a,8,9,10,11,11a,11b,12,13,13a-octadecahydro-2H-cyclopenta[a]chrysen-9-yl)oxy)carbonyl)-2,2-dimethylcyclobutane-1-carboxylic acid], the IC50 is less than 3 nM with HIV-1 strain 92HT599 (setting [1]), less than 50 nM in the assay with HIV-1 strain 92HT599 (setting [2]), 5.01 to 10 nM in the assay with HIV-1 pNL4-3 WT and more than 50 nM with HIV-1 pNL4-3 V7A.

Consider `Cc1ccc(C(=O)NC2(C(=O)N[C@@]34CC[C@]5(C)[C@H](CC[C@@H]6[C@@]7(C)CC[C@H](OC(=O)[C@H]8C[C@@H](C(=O)O)C8(C)C)C(C)(C)[C@@H]7CC[C@]65C)C3=C(C(C)C)C(=O)C4)CC2)cc1` [Example 40, (1R,3S)-3-((((3aR,5aR,5bR,7aR,9S,11aR,11bR,13aS)-1-isopropyl-5a,5b,8,8,11a-pentamethyl-3a-(1-(4-methylbenzamido)cyclopropane-1-carboxamido)-2-oxo-3,3a,4,5,5a,5b,6,7,7a,8,9,10,11,11a,11b,12,13,13a-octadecahydro-2H-cyclopenta[a]chrysen-9-yl)oxy)carbonyl)-2,2-dimethylcyclobutane-1-carboxylic acid], for which the 50% inhibitory concentration (IC50) was less than 3 nM with HIV-1 strain 92HT599 (setting [1]), less than 50 nM in the assay with HIV-1 strain 92HT599 (setting [2]), less than 5 nM in the assay on HIV-1 pNL4-3 WT and less than 10 nM in the assay on HIV-1 pNL4-3 V7A.

On to `CC(C)C1=C2[C@H]3CC[C@@H]4[C@@]5(C)CC[C@H](OC(=O)[C@H]6C[C@@H](C(=O)O)C6(C)C)C(C)(C)[C@@H]5CC[C@@]4(C)[C@]3(C)CC[C@@]2(NC(=O)C(C)(C)NC(=O)c2ccc(S(C)(=O)=O)cc2)CC1=O` [Example 51, (1R,3S)-3-((((3aR,5aR,5bR,7aR,9S,11aR,11bR,13aS)-1-isopropyl-5a,5b,8,8,11a-pentamethyl-3a-(2-methyl-2-(4-(methylsulfonyl)benzamido)propanamido)-2-oxo-3,3a,4,5,5a,5b,6,7,7a,8,9,10,11,11a,11b,12,13,13a-octadecahydro-2H-cyclopenta[a]chrysen-9-yl)oxy)carbonyl)-2,2-dimethylcyclobutane-1-carboxylic acid], for which the IC50 with HIV-1 strain 92HT599 (setting [1]) was less than 3 nM; in the assay on HIV-1 strain 92HT599 (setting [2]), less than 50 nM; in the assay on HIV-1 pNL4-3 WT, 5.01 to 10 nM; in the assay on HIV-1 pNL4-3 V7A, more than 50 nM.

Take `CC(C)C1=C2[C@H]3CC[C@@H]4[C@@]5(C)CC[C@H](OC(=O)[C@H]6C[C@@H](C(=O)O)C6(C)C)C(C)(C)[C@@H]5CC[C@@]4(C)[C@]3(C)CC[C@@]2(NC(=O)C(C)(C)NC(=O)c2cnccn2)CC1=O` [Example 5, (1R,3S)-3-((((3aR,5aR,5bR,7aR,9S,11aR,11bR,13aS)-1-isopropyl-5a,5b,8,8,11a-pentamethyl-3a-(2-methyl-2-(pyrazine-2-carboxamido)propanamido)-2-oxo-3,3a,4,5,5a,5b,6,7,7a,8,9,10,11,11a,11b,12,13,13a-octadecahydro-2H-cyclopenta[a]chrysen-9-yl)oxy)carbonyl)-2,2-dimethylcyclobutane-1-carboxylic acid]: the IC50 is less than 3 nM with HIV-1 strain 92HT599 (setting [1]), 50 to 200 nM with HIV-1 strain 92HT599 (setting [2]), less than 5 nM in the assay on HIV-1 pNL4-3 WT and less than 10 nM in the assay with HIV-1 pNL4-3 V7A.

Take `CC(C)C1=C2[C@H]3CC[C@@H]4[C@@]5(C)CC[C@H](OC(=O)[C@H]6C[C@@H](C(=O)O)C6(C)C)C(C)(C)[C@@H]5CC[C@@]4(C)[C@]3(C)CC[C@@]2(NC(=O)C(C)(C)NS(C)(=O)=O)CC1=O` [Example 63, sodium (1R,3S)-3-((((3aR,5aR,5bR,7aR,9S,11aR,11bR,13aS)-1-isopropyl-5a,5b,8,8,11a-pentamethyl-3a-(2-methyl-2-(methylsulfonamido)propanamido)-2-oxo-3,3a,4,5,5a,5b,6,7,7a,8,9,10,11,11a,11b,12,13,13a-octadecahydro-2H-cyclopenta[a]chrysen-9-yl)oxy)carbonyl)-2,2-dimethylcyclobutane-1-carboxylate]: the 50% inhibitory concentration (IC50) in the assay on HIV-1 strain 92HT599 (setting [1]) is less than 3 nM; with HIV-1 strain 92HT599 (setting [2]), less than 50 nM; in the assay with HIV-1 pNL4-3 WT, more than 10 nM; with HIV-1 pNL4-3 V7A it was more than 50 nM.
